From the NIST ThermoML archive (doi:10.1016/j.jct.2011.12.037)

Columns and labels:
[1] = for viscosity / mass density: 101.33 kPa, Liquid; for viscosity: Falling or rolling sphere viscometry; for mass density: Vibrating tube method; for Normal melting temperature: visual observation
[2] = Molar enthalpy of transition or fusion; details: Crystal; DSC

CCCCCCCC[n+]1cccc2ccccc21.O=S(=O)([N-]S(=O)(=O)C(F)(F)F)C(F)(F)F [1-octylquinolinium bis[(trifluoromethyl)sulfonyl]imide]
[1]
Details | Normal melting temperature [°C] | mass density [kg/m3] | viscosity [mPa·s]
323.15 K | – | 1317.99 | 98.46
328.15 K | – | 1313.82 | 77.27
333.15 K | – | 1309.64 | 61.75
338.15 K | – | 1305.46 | 50.06
343.15 K | – | 1301.29 | 41.15
348.15 K | – | 1297.14 | 34.22
353.15 K | – | 1292.99 | 28.87
358.15 K | – | 1288.85 | 24.7
363.15 K | – | 1284.71 | 21.19
Crystal | 48.2 | – | –

[1], DTA
Details | Glass transition temperature [°C] | Triple point temperature [K]
Crystal | – | 321.5
Glass | -52.3 | –

Details | Molar enthalpy of transition or fusion [kcal/mol]
[2] | 15

c1ccccc1 [benzene]
Details | Normal melting temperature [°C]
[1], Crystal | 5.5
